Columns and labels:
AKT = experiment: Phosphorylation of AKT on Thr308 in L6 cells, Western blot; format: cell-based, rat; conditions: 10 μM insulin (Ins) alone, 30 min, FIG. 1(b)
Description: (§1) […] muscle myoblast cells (L6) was a generous gift from Professor Hitoshi Ashida's Lab. (Kobe University, Kobe, Japan). The cells were grown and maintained in α-minimal essential medium (α-MEM, 12000022, GIBCO, CA, USA) containing 10% fetal bovine serum (FBS, GIBCO) and 1% penicillin streptomycin (GIBCO) in a cell culture incubator with 5% CO2 at 37° C. Prior to the following experiments, the cells were seeded and cultured at a density of 8×10^3 cells per well in 96-well plates or 2.5×10^5 cells per well in 6-well plates. After the myoblasts achieved 80% confluence, the cells were incubated for 5 days in the α-MEM supplemented with 2% FBS to induce differentiation to myotubes.
The L6 cells were fully differentiated with α-MEM supplemented with 2% FBS for 5 days to myotubes. The cells were washed twice with PBS containing 0.1% BSA and subsequently incubated α-MEM containing 0.25% BSA with or without 100 nM of S961, and then treated with or without 100 μM of Tetracosanol for 90 min. Then, the cells were treated with or without 10 μM of insulin for 30 min. Finally, the cells were collected and washed twice in KRH buffer, then lysed in ice-cold RIPA buffer for 60 min. After centrifugation at 12,000×g for 30 min. at 4° C., the supernatant was kept at −80° C. until use. The levels of the proteins including phospho-AKT (Thr308), AKT, phospho-AMPK (Thr172), and AMPK (Cell Signaling) were detected and evaluated by Western blot with primary antibody.
(§2) The cells after treatments were collected and washed twice in cold KRH buffer, and then lysed in ice-cold RIPA buffer incubation at 4° C. for 60 min. After centrifugation at 12,000×g for 30 min at 4° C., the supernatant was kept and quantified by Bradford protein assay (Bio-Rad, Hercules, Calif., USA). The proteins were separated using sodium dodecyl sulfate polyacrylamide gel electrophoresis (SDS-PAGE) and subsequently transferred to PVDF (Perkin Elmer Life Sciences, Boston, Mass., USA) membrane. […] The signals were monitored using Western Lightning™ Plus-ECL (Perkin Elmer Life Sciences) and the PVDF membrane was exposed to Luminescent image analyzer (LAS)-3000 (Fujifilm, Minato, Tokyo, Japan). Acquired data were analyzed and compared the difference among treatments.
The differentiated L6 cells were incubated with 100 μM of tetracosanol (Tet) at 37° C. for 90 min, and then treated 10 μM of insulin (Ins) at 37° C. for 5 or 30 min. The cell lysates were separated by SDS-PAGE and blotted 5 min for phospho-Insr on Tyr1158, 1162, and 1163 (Insr, 100 kDa), and phospho-AKT on Thr308 protein level was measured at 30 min in Western blot analysis.

Insr = molecular target: T1, Insr (Rattus norvegicus, UniProt P15127); experiment: Phosphorylation of insulin receptors (Tyr1158/Tyr1162/Tyr1163) in L6 cells, Western blot; format: cell-based; conditions: 10 μM insulin (Ins) alone, 5 min, FIG. 1(a)
T1 construct: L6 cells were fully differentiated with α-MEM supplemented with 2% FBS for 5 days to myotubes; endogenous in cells; host or cells: L6 myoblasts differentiated to myotubes
T1 sequence (P15127 27-759 limits assumed): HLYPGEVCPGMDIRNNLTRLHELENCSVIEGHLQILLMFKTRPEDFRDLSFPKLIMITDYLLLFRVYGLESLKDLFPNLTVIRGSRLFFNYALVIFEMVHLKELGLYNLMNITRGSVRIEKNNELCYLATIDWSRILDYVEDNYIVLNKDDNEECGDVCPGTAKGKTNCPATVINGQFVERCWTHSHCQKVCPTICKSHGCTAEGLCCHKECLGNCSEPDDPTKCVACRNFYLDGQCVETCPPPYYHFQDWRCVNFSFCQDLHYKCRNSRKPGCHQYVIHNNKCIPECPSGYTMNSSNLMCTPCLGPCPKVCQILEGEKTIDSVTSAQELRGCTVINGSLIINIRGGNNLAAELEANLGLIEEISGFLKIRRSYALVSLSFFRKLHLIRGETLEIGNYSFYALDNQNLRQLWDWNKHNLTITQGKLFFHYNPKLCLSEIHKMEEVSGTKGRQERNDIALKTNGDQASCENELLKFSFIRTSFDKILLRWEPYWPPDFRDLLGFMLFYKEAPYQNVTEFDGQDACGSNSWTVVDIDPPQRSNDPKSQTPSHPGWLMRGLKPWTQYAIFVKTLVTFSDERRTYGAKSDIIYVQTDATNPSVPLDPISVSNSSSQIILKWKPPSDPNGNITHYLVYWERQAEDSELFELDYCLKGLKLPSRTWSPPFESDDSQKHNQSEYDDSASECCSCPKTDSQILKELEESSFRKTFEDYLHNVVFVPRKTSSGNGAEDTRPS
T1 sequence (P15127 764-1383 limits assumed): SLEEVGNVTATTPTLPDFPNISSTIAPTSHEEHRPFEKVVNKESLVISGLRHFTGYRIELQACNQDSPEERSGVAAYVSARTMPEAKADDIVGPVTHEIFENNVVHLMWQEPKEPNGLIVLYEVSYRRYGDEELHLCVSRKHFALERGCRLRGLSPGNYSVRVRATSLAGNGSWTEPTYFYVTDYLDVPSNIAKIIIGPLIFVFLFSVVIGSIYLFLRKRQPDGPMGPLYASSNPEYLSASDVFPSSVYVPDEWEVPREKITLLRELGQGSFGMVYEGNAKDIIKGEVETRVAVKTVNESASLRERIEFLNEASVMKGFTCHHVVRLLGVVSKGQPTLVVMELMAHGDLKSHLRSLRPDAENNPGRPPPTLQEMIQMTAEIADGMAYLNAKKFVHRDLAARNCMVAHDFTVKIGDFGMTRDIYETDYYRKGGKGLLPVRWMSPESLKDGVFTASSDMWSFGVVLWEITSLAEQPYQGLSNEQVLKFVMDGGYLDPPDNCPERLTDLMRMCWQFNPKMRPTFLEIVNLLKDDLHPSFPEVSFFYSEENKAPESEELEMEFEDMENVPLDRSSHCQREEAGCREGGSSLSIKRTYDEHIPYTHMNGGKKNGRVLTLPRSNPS
Description: as §1
L6 cells were fully differentiated with α-MEM supplemented with 2% FBS for 5 days to myotubes. The cells were washed twice with Phosphate Buffered Saline (PBS) containing 0.1% BSA and subsequently incubated α-MEM containing 0.25% BSA with or without 100 nM of S961, and treated with or without 100 μM of Tetracosanol for 90 min. Then, the cells were treated with or without 10 μM of insulin for 5 min. […] The levels of the proteins including phospho-Insulin receptors (Tyr1158/Tyr1162/Tyr1163) and Insulin receptor (Cell Signaling, Boston, Mass., USA) were detected and evaluated by Western blot with primary antibody.
as §2, with “USA).” for “USA). The proteins were separated using sodium dodecyl sulfate polyacrylamide gel electrophoresis (SDS-PAGE) and subsequently transferred to PVDF (Perkin Elmer Life Sciences, Boston, Mass., USA) membrane.”, “treatments. […]” for “treatments.”

Substance: insulin: Insulin purchased from Novo-Nordisk [reference compound]
- phospho-AKT on Thr 308 (AKT): induced the phospho-AKT on Thr 308
- phosphorylation of phospho-Insr on Tyr1158, 1162, and 1163 (Insr): tended to be enhanced

Source: patent US9226950B2, “Method and composition for treating diabetes mellitus” (National Dong Hwa University, priority 2013, dated 2016)
